Holding throughout (assay type): biochemical
One experiment concerns the target T1, HDAC1 (Homo sapiens, UniProt Q13547).
T1 construct: purchased Enzo Life Sciences
The experiment in a line: HDAC Inhibition Screening Assay (FLUOR DE LYS Fluorimetric Drug Discovery Kit), HDAC1. To be noted: for inhibition at 2 µM: 2 μM compound; for inhibition at 10 µM: 10 μM compound; for inhibition at 50 µM: 50 μM compound. The method in brief: (§1)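 Recombinant HDAC1, HDAC2 or HDAC3 was incubated with an acetyl-lysine fluorogenic substrate, and a developer was then added to release the fluorophore. Compounds were tested at 2, 10 and 50 μM, with fluorescence read at 360 or 485 nm excitation and 460 or 530 nm emission. Activity was expressed as a percentage of basal control minus baseline.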

Another experiment addresses T2, HDAC2 (Homo sapiens, UniProt Q92769).
T2 construct: purchased Enzo Life Sciences
Kind of experiment: HDAC Inhibition Screening Assay (FLUOR DE LYS Fluorimetric Drug Discovery Kit), HDAC2. Particulars: for inhibition at 2 µM: 2 μM compound; for inhibition at 10 µM: 10 μM compound; for inhibition at 50 µM: 50 μM compound. Put shortly:
as §1

The target in the next experiment is T3, HDAC3 (Homo sapiens, UniProt O15379).
T3 construct: purchased Enzo Life Sciences
The experiment in a line: HDAC Inhibition Screening Assay (FLUOR DE LYS Fluorimetric Drug Discovery Kit), HDAC3. To be noted: for inhibition at 2 µM: 2 μM compound; for inhibition at 10 µM: 10 μM compound; for inhibition at 50 µM: 50 μM compound. The method in brief: as §1

For another experiment, the target named is T4, ATX (autotaxin) (Homo sapiens, UniProt Q13822).
T4 construct: purchased Cayman 10803
Kind of experiment: Autotaxin Inhibition Screening Assay (choline release from LPC, LPC-CR). To be noted: for inhibition at 4 µM: 4 μM compound; for inhibition at 20 µM: 20 μM compound; for inhibition at 50 µM: 50 μM compound. Put shortly:
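Released choline from 100 μM 14:0 LPC, detected via choline oxidase–HRP–homovanillic acid fluorescence (320/450 nm) kinetically over 90 min, reports activity of 20 ng ATX. Buffer: 50 mM Tris pH 8.0, 50 mM CaCl2, 0.01% Triton X-100; test compounds 4, 20, 50 μM; percent inhibition from blank-subtracted slopes relative to vehicle.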

From US12162820B2 (TAIWANJ PHARMACEUTICALS CO., LTD., priority 2019, dated 2024) come the findings set out here.

Broadly, the inhibition is the drop in the measured response relative to a control, in per cent.

T1 sequence (Q13547 whole entry): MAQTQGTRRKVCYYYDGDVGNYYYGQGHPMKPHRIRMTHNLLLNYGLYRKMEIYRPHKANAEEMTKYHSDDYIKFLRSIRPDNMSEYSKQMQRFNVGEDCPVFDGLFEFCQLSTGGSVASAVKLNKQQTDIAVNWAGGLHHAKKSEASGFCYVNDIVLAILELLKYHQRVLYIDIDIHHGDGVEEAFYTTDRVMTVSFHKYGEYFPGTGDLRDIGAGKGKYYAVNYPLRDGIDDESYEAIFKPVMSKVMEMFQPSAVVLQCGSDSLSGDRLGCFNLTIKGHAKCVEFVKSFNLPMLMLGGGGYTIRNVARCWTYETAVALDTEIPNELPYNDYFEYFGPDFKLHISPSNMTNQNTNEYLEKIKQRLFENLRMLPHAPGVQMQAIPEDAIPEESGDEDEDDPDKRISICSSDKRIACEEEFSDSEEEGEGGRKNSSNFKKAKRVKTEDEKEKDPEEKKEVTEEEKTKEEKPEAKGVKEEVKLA
T3 sequence (O15379 whole entry): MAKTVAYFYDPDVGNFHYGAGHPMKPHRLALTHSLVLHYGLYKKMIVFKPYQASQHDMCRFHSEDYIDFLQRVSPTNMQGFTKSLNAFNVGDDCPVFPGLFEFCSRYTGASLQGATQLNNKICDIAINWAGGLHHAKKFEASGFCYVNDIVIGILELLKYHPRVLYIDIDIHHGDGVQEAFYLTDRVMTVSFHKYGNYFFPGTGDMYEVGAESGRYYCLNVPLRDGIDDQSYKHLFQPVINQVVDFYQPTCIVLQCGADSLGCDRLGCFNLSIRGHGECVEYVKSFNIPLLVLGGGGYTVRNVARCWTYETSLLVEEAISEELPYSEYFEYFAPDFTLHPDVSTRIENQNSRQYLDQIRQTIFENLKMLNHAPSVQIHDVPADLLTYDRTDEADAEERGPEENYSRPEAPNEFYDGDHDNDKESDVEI
T3 sequence (O75376 395-489 partner limits assumed): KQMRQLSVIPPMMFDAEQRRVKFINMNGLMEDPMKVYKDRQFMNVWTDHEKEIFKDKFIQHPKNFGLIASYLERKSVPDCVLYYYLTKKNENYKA
T2 sequence (Q92769 whole entry): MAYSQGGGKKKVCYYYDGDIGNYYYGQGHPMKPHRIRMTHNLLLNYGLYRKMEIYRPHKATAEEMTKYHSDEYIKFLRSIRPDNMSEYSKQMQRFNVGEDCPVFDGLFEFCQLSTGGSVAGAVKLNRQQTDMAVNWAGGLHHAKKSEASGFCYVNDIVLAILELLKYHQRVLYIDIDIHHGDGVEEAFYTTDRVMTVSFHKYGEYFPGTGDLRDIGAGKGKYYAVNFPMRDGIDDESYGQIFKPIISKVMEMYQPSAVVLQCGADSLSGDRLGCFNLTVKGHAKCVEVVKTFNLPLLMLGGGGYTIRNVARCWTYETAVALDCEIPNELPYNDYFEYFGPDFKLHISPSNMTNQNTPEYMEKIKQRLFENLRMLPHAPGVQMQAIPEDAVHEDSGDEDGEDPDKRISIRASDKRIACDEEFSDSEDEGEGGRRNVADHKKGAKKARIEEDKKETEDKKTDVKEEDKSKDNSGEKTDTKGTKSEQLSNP

As for `Nc1cc(F)ccc1NC(=O)CCCCC(=O)N1CCN(C(=O)c2ccc3c(c2)CC/C(=C\c2cc(C(F)(F)F)cc(C(F)(F)F)c2)C3=O)CC1` [Compound 82, (E)-N-(2-amino-4-fluorophenyl)-6-(4-(6-(3,5-bis(trifluoromethyl)benzylidene)-5-oxo-5,6,7,8-tetrahydronaphthalene-2-carbonyl)piperazin-1-yl)-6-oxohexanamide], at HDAC1, the inhibition at 2 µM was less than 50%, the inhibition at 10 µM is less than 50% and the inhibition at 50 µM is less than 50%. At HDAC2, the inhibition at 2 µM was less than 50%, the inhibition at 10 µM was less than 50% and the inhibition at 50 µM was less than 50%. Besides, on HDAC3, the inhibition at 2 µM is less than 50%, the inhibition at 10 µM was less than 50% and the inhibition at 50 µM lay in the range of 50 to 80%. At ATX (autotaxin), this compound displayed an inhibition at 4 µM of more than 80%, an inhibition at 20 µM of more than 80% and an inhibition at 50 µM of more than 80%.

As to `O=C(/C=C/c1ccc2c(c1)CCC2NCCc1c[nH]c2ccccc12)NO` (stereo not drawn) [Compound 58, (E)-3-(1-((2-(1H-indol-3-yl)ethyl)amino)-2,3-dihydro-1H-inden-5-yl)-N-hydroxyacrylamide], on HDAC1, the inhibition at 2 µM is more than 80%, the inhibition at 10 µM is more than 80% and the inhibition at 50 µM is more than 80%. Besides, on HDAC2, the inhibition at 2 µM is more than 80%, the inhibition at 10 µM is more than 80% and the inhibition at 50 µM was more than 80%. Besides, at HDAC3, the inhibition at 2 µM is more than 80%, the inhibition at 10 µM is more than 80% and the inhibition at 50 µM was more than 80%. Besides, at ATX (autotaxin), the inhibition at 4 µM is less than 50%, the inhibition at 20 µM is less than 50% and the inhibition at 50 µM lay in the range of 50 to 80%.

Take `O=C(CCCCCCC(=O)Nc1ccc2c(c1)CCCC2=O)NO` [Compound 1, N^1-hydroxy-N^8-(5-oxo-5,6,7,8-tetrahydronaphthalen-2-yl)octanediamide]: on HDAC1, the inhibition at 2 µM was more than 80%, the inhibition at 10 µM was more than 80% and the inhibition at 50 µM was more than 80%. At HDAC2, the inhibition at 2 µM was more than 80%, the inhibition at 10 µM was more than 80% and the inhibition at 50 µM was more than 80%. Besides, on HDAC3, the inhibition at 2 µM is more than 80%, the inhibition at 10 µM is more than 80% and the inhibition at 50 µM was more than 80%. At ATX (autotaxin), this compound displayed an inhibition at 4 µM of less than 50%, an inhibition at 20 µM of less than 50% and an inhibition at 50 µM of less than 50%.

Consider `O=C(/C=C/c1ccc2c(c1)CCCC2NC(=O)c1cc(C(F)(F)F)cc(C(F)(F)F)c1)NO` (stereo not drawn) [Compound 24, (E)-N-(6-(3-(hydroxyamino)-3-oxoprop-1-en-1-yl)-1,2,3,4-tetrahydronaphthalen-1-yl)-3,5-bis(trifluoromethyl)benzamide], for which, on HDAC1, the inhibition at 2 µM was less than 50%, the inhibition at 10 µM is less than 50% and the inhibition at 50 µM was in the range of 50 to 80%. Moreover, on HDAC2, the inhibition at 2 µM is less than 50%, the inhibition at 10 µM is less than 50% and the inhibition at 50 µM was in the range of 50 to 80%. On HDAC3, the inhibition at 2 µM is less than 50%, the inhibition at 10 µM is less than 50% and the inhibition at 50 µM is less than 50%. At ATX (autotaxin), this compound showed an inhibition at 4 µM of less than 50%, an inhibition at 20 µM of less than 50% and an inhibition at 50 µM of less than 50%.

For `Nc1cc(F)ccc1NC(=O)/C=C/c1ccc2c(c1)CCC2NS(=O)(=O)c1cc(C(F)(F)F)cc(C(F)(F)F)c1` (stereo not drawn) [Compound 17, (E)-N-(2-amino-4-fluorophenyl)-3-(1-((3,5-bis(trifluoromethyl)phenyl)sulfonamido)-2,3-dihydro-1H-inden-5-yl)acrylamide], on HDAC1, the inhibition at 2 µM is less than 50%, the inhibition at 10 µM was less than 50% and the inhibition at 50 µM is less than 50%. Further, on HDAC2, the inhibition at 2 µM is less than 50%, the inhibition at 10 µM is less than 50% and the inhibition at 50 µM was less than 50%. Also, on HDAC3, the inhibition at 2 µM is less than 50%, the inhibition at 10 µM was less than 50% and the inhibition at 50 µM was less than 50%. For the same compound, at ATX (autotaxin), the inhibition at 4 µM was less than 50%, the inhibition at 20 µM is less than 50% and the inhibition at 50 µM is less than 50%.
